# Measured values reported in patent US5434188A, “1-ether and 1-thioether-naphthalene-2-carboxamides as inhibitors of cell adhesion and as inhibitors of the activation of HIV” (Warner-Lambert Company, priority 1994, dated 1995).
# Experiments:
# [1] = tested on: HIV-1 activation in OM-10.1 cells; conditions: poster NCDDG/AIDS 1991; cited from earlier work
# [2] = tested on: CD4 down regulation and viral expression in HIV-infected cells; conditions: Hamamoto, et al. 1989; cited from earlier work
# [3] = tested on: human neutrophil adhesion to TNF-α stimulated human umbilical vein endothelial cells; assay: Modified method: inhibition of human neutrophil adhesion to TNF-α stimulated HUVEC (ECA), calcein-labeled neutrophils; format: cell-based; conditions: for inhibition at 100 µM / inhibition at 33 µM: Neutrophil, neutrophils labeled with calcein; for inhibition at 100 µM: footnote d: 100 μM; for inhibition at 33 µM: footnote c: 33 μM
# Experimental: MODIFIED METHOD FOR DETERMINING THE INHIBITION OF HUMAN NEUTROPHIL ADHESION TO TNF-α STIMULATED HUMAN UMBILICAL VEIN ENDOTHELIAL CELLS
# Second passage HUVEC (Clonetics Corporation, San Diego, Calif., CC-2617) were seeded into Corning (Corning glass works, Corning, N.Y.) 96-well cell culture plates at approximately 5×10^3 cells/well and grown to confluency in supplemented endothelial basal medium (EBM, MCDB-131, Clonetics, 10 ng/mL EGF, 1 μg/mL hydrocortisone, 0.4% bovine brain extract, 5% Fetal Bovine Serum). One day prior to running the assay, typically 3 days postseeding, the cultures were re-fed with 0.2 mL/well supplemented EBM (S-EBM).
# Preparation of Test Compounds
# Test compounds were prepared as 10 mL stock solutions at a concentration of 1.0 mM. The compound were initially solubilized in 0.1 mL DMSO followed by the addition of 9.9 mL S-EBM. The drug preparations were then diluted in one step to a concentration of 66.6 μM. Solubilizations and dilutions were performed in polystyrene containers.
# Recombinant human tumor necrosis factor-α(TNF, Genzyme, Boston, Mass., code TNF-H) was prepared at 400 U/mL in S-EBM. Stock TNF was prepared to 20,000 U/mL in Delbecco's phosphate buffered saline (PBS, Gibco, Grand Island, N.Y.) plus 0.1% BSA and stored at -70° C. HUVEC were washed one time with 0.2 mL warm unsupplemented EBM and then stimulated for 4 hours at 37° C. with 200 U/mL TNF in the presence of 33.3 μM test compound. This was accomplished by adding 0.1 mL of 400 U/mL TNF and 0.1 mL 66.6 μM test compound. These additions were done slowly as to not disrupt the HUVEC monolayer. Each compound was tested in six wells. Unstimulated (Vehicle control) and TNF-stimulated without test compound treatments were also run in each plate.
# One hour prior to adding the neutrophils to the HUVEC, neutrophils (5×10^6/ mL) were labeled for 30 minutes at 37° C. with 5 μM calcein-AM (Molecular Probes, Eugene, Oreg.) in Hanks' balanced salt solution plus 0.45% BSA. Stock calcein was prepared to 5 mM in anhydrous DMSO and stored desiccated at -20° C. At the end of the incubation the cells were washed two times in cold HBSS and resuspended to a final concentration of 1×10^6 cells/mL in unsupplemented EBM.
# Addition of Neutrophils to HUVEC
# At the end of the 4-hour stimulation and immediately prior to the addition of the neutrophils to the HUVEC monolayer, the plates were washed with 0.2 mL warm unsupplemented EBM to remove TNF and drug. Neutrophils (1×10^5 cells) were slowly added to each of the treated wells and incubated for 30 minutes at 37° C. At the end of the incubation the plates were washed two times with 0.2 mL warm unsupplemented EBM followed by a final addition of 0.1 mL for plate scanning.
# Determination of Relative Fluorescence
# The relative fluorescence was determined using a Millipore Cytofluor 2300 system (excitation=480, emission=530, sensitivity=4).
# Results were expressed as means of percent inhibition of TNF-stimulated adherence, using the following equation: [formula]
# Some of these compounds were tested at concentrations of 33.3 μM, 10.0 μM, 3.3 μM, and 1.0 μM to determine IC50 values. Linear regression analysis of the means of the inhibition values were used to determine the IC50.
# ICAM-1 = assay: ELISA of ICAM-1 on TNFα stimulated HUVEC; format: cell-based, human; conditions: first of the two values
# Experimental: (§1) Murine monoclonal anti-human ICAM-1 (R & D Systems, Cat No. BBA-4) or murine monoclonal anti-human E-selectin (R & D, Cat No. BBA-2) dissolved in DMEM/2%BSA were added to each well at 0.5 μg/mL and allowed to incubate at 37° C. for 2 hours. HUVEC monocultures were then washed 4 times with DMEM/2%BSA. A peroxidase conjugated sheep anti-mouse IgG (Cappel) was added (1:3,000 dilution) and allowed to incubate 1 hour at 37° C. The cells were then washed 4 times with DMEM. A color reagent (Biorad) was added to the fixed cells and incubated 15 minutes at room temperature. The reaction was stopped with a 2% oxalic acid solution and the absorbance read at 414 nm on a titertek plate reader.
# (§2) Compounds were dissolved in DMSO at a concentration of […] and diluted with media to obtain final testing concentrations. HUVECs received compound dissolved in media 30 minutes before the TNFα challenge. The absorbance of non-stimulated HUVECs was subtracted from the absorbance values of TNFα stimulated cells before percent inhibition was determined. Percent inhibition was determined by comparing the absorbance of vehicle treated cells with drug treated cells. IC50 s were determined using linear regression analysis.
# E-selectin = assay: ELISA of E-selectin on TNFα stimulated HUVEC; format: cell-based, human; conditions: second of the two values
# Experimental: as §1, §2
# [4] = tested on: HIV-1 activation in OM-10.1 cells; assay: Inhibition of activation of latent HIV-1 in the OM-10.1 cell line (TNF-α induced); format: cell-based; conditions: Human immunodeficiency virus 1, read-out: OM-10n (IC50 μM)
# Text: The cellular pathways involved in mediating the activating signal from the plasma membrane to the integrated virus, resulting in HIV-1 expression, are much less clear. Recently, the development of a reliable and simple system for evaluating compounds that could prevent activation of latent HIV was reported at the National […] (NCDDG)/AIDS by P. Feorino, S. T. Butera, T. M. Folks, and R. F. Schinazi, Nov. 3-7, 1991. The assay system employed the OM-10.1 cell line, a unique chronically-infected promyelocytic clone which remains CD4+ until HIV-1 activation with tumor necrosis factor-α. The expression of CD4+ on the cell surface and the activity of reverse transcriptase are used as markers for quantitating viral expression. Alternatively, other HIV markers, such as protease activity, which are known to those of skill in the art can be used. OM-10.1 cells remain CD4^+ until viral activation and respond to tumor necrosis factor induction, and therefore, these cultures are used to conveniently and rapidly examine pharmacologics for an ability […] down modulation (decrease in expression of CD4^+ on the cell surface) and HIV-1 expression.
# A variety of compounds known to have antiviral properties against either acutely or chronically infected cells were evaluated for their ability to inhibit HIV expression in these OM-10.1 cells. […]
# [5] = tested on: human neutrophil adhesion to TNF-α, IL-α, and LPS-stimulated human umbilical vein endothelial cells; assay: Inhibition of human neutrophil adhesion to stimulated human umbilical vein endothelial cells (ECA), 51Cr-labeled neutrophils; format: cell-based; conditions: footnote b: 100 μM, neutrophils labeled with Cr
# Text: METHOD FOR DETERMINING THE INHIBITION OF HUMAN NEUTROPHIL ADHESION TO TNF-α, IL-α, AND LPS-STIMULATED HUMAN UMBILICAL VEIN ENDOTHELIAL CELLS (ECA)
# Neutrophils were isolated from anticoagulant-treated venous blood obtained from healthy human volunteers according to the method of Ferrante and Thong (J. Immunol. Methods 24:389-393 (1978)). The cell preparations consisted of greater than 98% neutrophils.
# Second passage human umbilical vein endothelial cells (HUVEC) (Clonetics, San Diego, Calif.) were seeded into Falcon 24-well cell culture plates (Becton Dickinson, Lincoln Park, N.J.) at approximately 2×10^4 cells per well. The cells were grown to confluent monolayers in endothelial basal medium (EBM, Clonetics) supplemented with 5% fetal calf serum (Hyclone Laboratories, Logan, Utah), 10 ng/mL EGF, 1 μg/mL hydrocortisone, 0.4% bovine brain extract (Clonetics) in 5% CO2 at 37° C. […]
# Stimulation of HUVEC with tumor necrosis factor-α (TNF-α) (Genzyme, Cambridge, Mass.), interleukin (IL-1α) (Genzyme) or E. coli 0111:B4 lipopolysaccharide (LPS) (Sigma) in the presence or absence of drug was initiated 4 hours prior to the addition of neutrophils. […] Lysates were collected and the radioactivity in each well was determined by gamma ray spectroscopy. […]
molecule,measurement,setting,value
"Cc1cn([C@H]2C[C@H](F)[C@@H](CO)O2)c(=O)[nH]c1=O [3'-fluoro-3'-deoxythymidine (FLT), 3'-fluoro-3'-deoxythymidine]","inhibition of HIV-1 activation, in words",[1],modest inhibitors of the activation of HIV-1
CCCCCCCCCCCCCC(=O)O[C@@H]1[C@@H](C)[C@@]2(O)[C@@H](C=C(CO)C[C@]3(O)C(=O)C(C)=C[C@@H]23)[C@@H]2C(C)(C)[C@]12OC(C)=O [12-0-tetradecanoylphorbol-13-acetate],"effect on CD4 down regulation and HIV expression, in words",[2],mediates CD4 down regulation and viral expression in HIV-infected cells
"COc1ccc2ccc(C(N)=O)c(OC(C)C)c2c1 [Example 1, 7-Methoxy-1-(1-methylethoxy)-2-naphthalenecarboxamide]",IC50,"[3]; footnote a, neutrophil adhesion to stimulated HUVEC, neutrophil label not given",11000 nM
same,ICAM/ESEL % Inhib @ 30 μM: ICAM,ICAM-1,77%
same,ICAM/ESEL % Inhib @ 30 μM: ESEL,E-selectin,84%
same,IC50,[4],2.5 µM
"CCNC(=O)c1ccc2ccc(OC)cc2c1OC(C)C [Example 2, N-Ethyl-7-methoxy-1-(1-methylethoxy)-2-naphthalenecarboxamide]",inhibition at 100 µM,[3],73%
"COc1ccc2ccc(C(=O)NC(C)C)c(OC(C)C)c2c1 [Example 3, 7-Methoxy-1-(1-methylethoxy)-N-(1-methylethyl)-2-naphthalenecarboxamide]",inhibition at 33 µM,[3],64%
"COc1ccc2ccc(C(=O)NCc3ccccc3)c(OC(C)C)c2c1 [Example 4, 7-Methoxy-1-(1-methylethoxy)-N-(phenylmethyl)-2-naphthalenecarboxamide]",inhibition at 100 µM,[3],14%
"CC(C)Oc1ccc2ccc(C(N)=O)c(OC(C)C)c2c1 [Example 5, 1,7-Bis-(1-methylethoxy)-2-naphthalenecarboxamide]",inhibition at 100 µM,[5],45%
same,IC50,[4],0.5 µM
"COc1ccc2c(OC(C)C)c(C(N)=O)ccc2c1 [Example 6, 6-Methoxy-1-(1-methylethoxy)-2-naphthalenecarboxamide]",inhibition at 33 µM,[3],9%
"COc1ccc2ccc(C(N)=O)c(OC)c2c1 [Example 7, 1,7-Dimethoxy-2-naphthalenecarboximide]",inhibition at 33 µM,[3],15%
"CN[C@@H]1C[C@H]2O[C@@](C)([C@@H]1OC)n1c3ccccc3c3c4c(c5c6ccccc6n2c5c31)C(=O)NC4 [Staurosporine, staurosporine]","effect on CD4 down regulation and HIV expression, in words",[2],effective TPA inhibitor for both of these actions
CC(=O)N(O)CCCCCNC(=O)CCC(=O)N(O)CCCCCNC(=O)CCC(=O)N(O)CCCCCN [desferrioxamine],"inhibition of HIV-1 activation, in words",[1],modest inhibitors of the activation of HIV-1
interferon Y: modest inhibitor of the activation of HIV-1,"inhibition of HIV-1 activation, in words",[1],modest inhibitors of the activation of HIV-1
